Test results reported in US7309484B2, “Compositions and methods for screening antibacterial compounds” (priority 2003, dated 2007).
Bridge positions count the residues as written; N and C are the ends. Square brackets hold non-standard residues; d marks the D form. Peptide text beside a SMILES is read from it. * marks the point of attachment. Ileψ(thiazoline)Cys = CC[C@H](C)[C@H](N)C1=N[C@H](C(=O)*)CS1; dOrn = NCCC[C@@H](N)C(=O)O

Test system: B. subtilis wild-type strain CU1065 gene expression
Experiment: DNA microarray analysis of the bacitracin stimulon, wild-type CU1065
Type: cell-based, Bacillus subtilis
Settings: wild type CU1065, 5 min after bacitracin
From the text: The bacitracin stimulon of B. subtilis was examined using global transcriptome analysis. […] Under most conditions tested, about 60-70 genes were induced greater than 5-fold. […] The scatter-plot represents the data sets obtained for strain HB0920 (yvqH was still detected as bacitracin-inducible due to the presence of a remaining region near the 5′-end of the gene). […] Members of the σ^M (white open squares) and σ^B (small black triangles) regulon are highlighted. All other gene signals are represented as small gray diamonds. […]
The bacitracin stimulon in the wild-type strain CU1065 was qualitatively similar to that of the liaH-deletion mutant HB0920 as judged by a comparison of the induction profile at 5 min, as illustrated in FIG. 8. […] Relative hybridization intensities are plotted for genes as measured for CU1065 (x axis) and HB0920 (y axis). […]
This locus is therefore a candidate for negative regulation by LiaH. In addition, expression of the bacAB and yvcRS loci was threefold greater in CU1065 than in the liaH mutant when both were measured 5 min after bacitracin treatment. […]
Each slide contains 9220 features corresponding to duplicate copies of each open reading frame, additional PCR products for some ORFs, rRNA genes, and other controls. […] Fluorescent signal intensity data was quantified using ArrayVision software (Molecular Dynamics) and normalized to the total detectable mRNA. […]

Structure (SMILES): CC[C@H](C)[C@H](N)C1=N[C@H](C(=O)N[C@@H](CC(C)C)C(=O)N[C@H](CCC(=O)O)C(=O)N[C@H](C(=O)N[C@H]2CCCCNC(=O)[C@H](CC(N)=O)NC(=O)[C@@H](CC(=O)O)NC(=O)[C@H](Cc3cnc[nH]3)NC(=O)[C@@H](Cc3ccccc3)NC(=O)[C@H]([C@@H](C)CC)NC(=O)[C@@H](CCCN)NC2=O)[C@@H](C)CC)CS1 [Bacitracin] ({Ileψ(thiazoline)Cys}-L[dE]IK[dOrn]I[dF]H[dD]N; lactam 4-C)
- induction of yhcYZ/yhdA locus: not induced
